Here are results for two compounds from patent US20130071897A1, “METHOD FOR CONTROLLING UNDESIRABLE BYPRODUCTS FORMATION CAUSED BY CONTAMINATING ORGANISMS IN THE PRODUCTION OF ETHANOL FROM SYNGAS” (COSKATA, INC., priority 2011, published 2013).

Molecules are shown by their SMILES. Values joined by “and” are separate entries in the source; they are usually repeats but may differ in a detail not shown here. Equal values may be shown once.

Experiment [1] deals with Clostridium tyrobutyricum. The experiment in a line: Butyric acid by gas chromatography in Clostridium tyrobutyricum batch fermentations. It is filed as cell-based. To be noted: Table 19, duplicates A and B. How it is done:
The concentration of butyric acid is determined by gas chromatography for several of the above samples at the stated points in time. The butyrate production is calculated based upon peak area calculations generated by the gas chromatograph. At 11 hours, the concentration of butyric acid for each of the controls is about 0.95 gram per liter, and the concentration of butyric acid for the samples containing 500 ppm of the inhibitor are about 0.6 gram per liter.
The concentration of butyric acid is determined by gas chromatography using the procedure set forth in Example 13. The control is reported only in Table 18.

Experiment [2] relates to Clostridium tyrobutyricum. The experiment in a line: Serum bottle batch fermentation of Clostridium tyrobutyricum on fructose, optical density. In kind it is cell-based. Conditions: Table 17, duplicates A and B. The protocol: Ethyl 3-(trifluoromethyl)benzoate is evaluated in a series of batch fermentations to determine the growth response of butyrogens to the presence of this compound at varying concentrations. The batch fermentations are conducted by anoxically filling 100 mL serum bottles with 15 mL of media having the composition given in Tables 12 and 13. About 0.15 mL of a 50% w/w solution of fructose in water (final fructose concentration about 5 g/L) is provided in the bottles. Duplicate runs are conducted for each concentration.
(§1) Each bottle is inoculated with 1.5 mL of seed culture inoculum of the strict butyrogen Clostridium tyrobutyricum, which has an OD of about 0.40 (which upon a 10 times dilution provides a starting OD for the fermentation of about 0.04). The bottles are maintained at a temperature of 37° C. Two hours after inoculation of the bottles with the bacteria, the compound is added to different bottles as a solution in 50 μL of N-methylpyrrolidone in the amounts indicated in Table 15. The fermentation process is allowed to progress at 37° C. At selected intervals of time, bacterial growth is measured by reading the optical density (OD) of the fermentation liquid. Optical density is measured by anoxically removing an aliquot of fermentation liquid and adding it to a disposable cuvette. OD's ranging between 0.01 and 0.4 are measured directly, while OD's greater than 0.4 are measure after performing a 1/10 dilution with water.
In this example ethyl 4,4,4-trifluoro-3-(trifluoromethyl)crotonate and ethyl 3-trifluoromethyl-4-methoxybenzoate are evaluated by batch fermentation. The batch fermentations are conducted by anoxically filling 100 mL serum bottles with 15 mL of media having the composition given in Tables 12 and 13. About 0.15 mL of a 50% w/w solution of fructose in water (final fructose concentration about 5 g/L) is provided in the bottles. Duplicate runs are conducted for each concentration.
as §1, with “of about 0.42 (which upon” for “of about 0.40 (which upon”, “of about 0.042). The bottles” for “of about 0.04). The bottles”, “in Table 16 and 17. The fermentation” for “in Table 15. The fermentation”, “0.4 are measured after performing” for “0.4 are measure after performing”

For experiment [3], the system named is acyl-CoA dehydrogenases. As to the kind of experiment: In vitro acyl-CoA dehydrogenase ferrocenium assay with C. tyrobutyricum cell-free extract. In kind it is biochemical. Conditions: 0.5 to 10 mM compound; rate of ferrocenium reduction at 300 nm. The protocol:
Lehman, et al., in An Acyl-Coenzyme A Dehydrogenase Assay Utilizing the Ferricenium Ion, Analytical Biochemistry 186, pages 280-284 (1990), disclose an in vitro assay screening technique for acyl-CoA dehydrogenases for determining enzyme deficiencies in children. An adaptation of this technique was explored as a potential screening method for ascertaining potential butyrogen inhibitors. An aqueous assay liquor is prepared such that each 1 milliliter sample contains 50 mM of TrisHCl buffer (pH 7.6); 0.05 mM of butyryl-CoA; 5 micromoles of FAD (flavin adenine dinucleotide) and 0.4 mM of ferrocenium. Whole cells of C. tyrobutyricum are lysed and are added to the assay liquor. […] The abbreviation mM stands for millimolar. To assure metabolic consistency among the samples a master batch of C. tyrobutyricum is prepared and harvested at the early log growth stage (approximate O.D. of between about 0.5 and 0.7). The master batch fermentation broth is centrifuged and rinsed with 50 mM TrisHCl buffer (pH 7.6), centrifuged and reconstituted with 50 mM TrisHCl buffer (pH 7.6) to be 10 times more concentrated than the original master batch. Aliquots of about 0.5 milliliter are placed into cryogenic vials (about 1.8 milliliter capacity) and frozen at −80° C. until needed. When needed, a vial is placed in an anoxic Coy chamber and allowed to thaw to room temperature. Once thawed, the cells are added to a 15 mL centrifuge tube and diluted with 0.5 mL of a 2 mg/mL solution of lysozyme (purchased from Aldrich) in 50 mM Tris-HCl (final concentration of lysozyme is about 1 mg/mL). The centrifuge tube is inverted 5 times, removed from the Coy chamber and allowed to incubate at 37° C. for 30 minutes. […] The centrifuge tube is vortexed in the Coy chamber for about 30 seconds, removed from the chamber and centrifuged for 15 minutes at 4000 rpm and 4° C. The tube is returned to the chamber and the cell-free extract (supernatant) is used to prepare the above described samples. The samples are analyzed at various times by absorbance spectroscopy at 300 nm using a Thermo Scientific Evolution 300 UV/Vis spectrophotometer with a 7-cuvette carousel and Starna quartz cuvettes with a septum cap to determine the amount of reduction of ferrocenium. The sample is at laboratory temperature and is maintained under anaerobic conditions. Typically, the absorbance is measured over a period of about 10 to 20 minutes which is sufficient time for the absorbance to stop changing. A linear slope of the rate of change in absorbance during the period that the absorbance is changing is determined using Microsoft Excel® 2010 linear regression to generate a straight line from the data points. The more gradual the slope, the better inhibition because the enzyme is slower at reducing the ferrocenium in the assay sample. A dose-response curve is then determined for each compound by plotting the linear slope against the respective compound concentration. A linear slope is then determined for each compound using Microsoft Excel® 2010 linear regression to generate a straight line from the data points. The steeper the dose-response slope, the better the inhibition because the increased concentration of the compound causes more of a difference in enzyme activity. The dose-response slope generally has a broad standard of deviation due to experimental imprecision and slope determinations.

Experiment [4] relates to C. autoethanogenum. The experiment in a line: Balch tube batch growth of homoacetogen C. autoethanogenum on fructose, optical density. Conditions: added 21 h after inoculation. In kind it is cell-based. The protocol:
These compounds were first tested to determine their effect on a known homoacetogen. Each compound was tested in a series of batch experiments to determine the growth response of a homoacetogen to the presence of the compound at varying concentrations. The batch experiments were all conducted by anoxically filling a Balch tube with 5 ml of a fermentation medium having the composition given in Tables 2 and 3. To expedite results, these batch experiments used fructose as the growth nutrient source for bacteria. Thus, the media included a 5 g/L of fructose.
Each tube was inoculated with 0.5 ml of the same strain of C. autoethanogenum bacteria seed culture inoculum. The tubes were maintained at a temperature of 37° C. Twenty one hours after the inoculation of the tube with the bacteria, the different crotonate derivatives from Table 1 were added to different tubes in the amounts indicated in Table 4 This was at a time of early to mid-log phase growth for the bacteria. Each fermentation of the bacteria in the media at the different concentration of crotonate derivatives were allowed to progress and were monitored to determine the bacteria growth at selected intervals of time varying from approximately 20 hours to 190 hours. Growth at the intervals was measured by reading the optical density (OD) of the fermentation liquid. Optical density was measured using a Spectronic Spec 20 (Thermo Spectronic) at a wavelength of 600 nm. The OD of the Balch tube culture was measured directly in the tube using absorbance mode on the Spec 20 machine. The machine was set to zero absorbance by first measuring and adjusting the setting to zero absorbance using media only as a blank. This process was repeated at each indicated time point throughout the experiment. The ability of a tube fermentation at a particular concentration of crotonate derivative to reach a predetermined optical density was recorded in Table 4. Table 4 indicates the presence of bacterial growth to an OD of approximately 2 or above with a “+”, and to an optical density in a range of 0.5 to 1.5 as a “+/−”, and indicates the failure of bacterial growth to reach an optical density of approximately 0.5 as a “−”.

Experiment [5] deals with Clostridium tyrobutyricum. The experiment in a line: Balch tube batch growth of strict butyrogen Clostridium tyrobutyricum on fructose, optical density. In kind it is cell-based. To be noted: added 21 h after inoculation. How it is done: Similar experiments were conducted to make a preliminary determination as to which of the crotonate and crotonate-like compounds would act as butyrogen retardants. For this purpose the selected compounds were tested again in a series of batch experiments to determine the growth response of butyrogens to the presence of the compound at varying concentrations. The batch experiments were all conducted by anoxically filling a 20 ml Balch tube with 5 ml of a fermentation medium having the composition given in Tables 2 and 3. The media included 0.5 v/v final concentration of a fructose substrate. For each of the crotonate concentrations tested, duplicate test tubes were prepared.
Each tube was inoculated with 0.5 ml seed culture inoculum of the strict butyrogen Clostridium tyrobutyricum. The tubes were maintained at a temperature of 37° C. Twenty one hours after the inoculation of the tube with the bacteria, the different compounds from Table 1 were added to different tubes in the amounts indicated in Table 6. This was at a time of early to mid-log phase growth for the bacteria. Each fermentation of the bacteria in the media at the different concentration of crotonate derivatives were allowed to progress and were monitored to determine the bacteria growth at selected intervals of time varying from approximately 20 hours to 54 hours. Growth at the intervals was measured by reading the optical density (OD) of the fermentation liquid. Optical density was measured as described in Example 1. The ability of a tube fermentation at a particular concentration of crotonate derivative to reach a predetermined optical density was recorded in Table 6. Table 6 indicates the presence of bacterial growth to an OD of approximately 1.8 or above with a “+”, and to an optical density in a range of 0.7 to 1.5 as a “+/−”, and indicates the failure of bacterial growth to reach an optical density of approximately 0.7 as a “−”.

On to `CCOC(=O)c1ccc(OC)c(C(F)(F)F)c1` [ethyl 3-trifluoromethyl-4-methoxybenzoate], for which the “Butyrate Production” value was 0.19 grams per liter and 0.10 grams per liter in experiment [1] (5 mM, 6 Hours); 0.03 grams per liter in experiment [1] (10 mM, 2 Hours); 0.69 grams per liter and 0.67 grams per liter in experiment [1] (10 mM, 4.5 Hours); 0.11 grams per liter and 0.10 grams per liter in experiment [1] (10 mM, 6 Hours); 0.19 grams per liter and 0.17 grams per liter in experiment [1] (10 mM, 24 Hours). Also, the “O.D. Response” value was 0.42 in experiment [2] (5 mM, 0 Hours, added 2 h after inoculation); 0.11 and 0.12 in experiment [2] (5 mM, 2 Hours, added 2 h after inoculation); 0.20 and 0.18 in experiment [2] (5 mM, 4.5 Hours); 0.16 and 0.10 in experiment [2] (5 mM, 6 Hours); 1.23 and 0.91 in experiment [2] (5 mM, 24 Hours); 0.42 in experiment [2] (10 mM, 0 Hours, added 2 h after inoculation). The “O.D. Response” value in experiment [2] (10 mM, 2 Hours, added 2 h after inoculation) was 0.11; in experiment [2] (10 mM, 4.5 Hours), 0.24 and 0.23; in experiment [2] (10 mM, 6 Hours) it was 0.12 and 0.13; in experiment [2] (10 mM, 24 Hours), 1.22 and 1.19.

Take `C/C=C/C(=O)OC(C)(C)C` [C, Tert-butyl crotonate, reference compound]: the “Dose-Response Slope” value in experiment [3] worked out at 6. Further, the “Optical density valuation of C. autoethanogenum” value in experiment [4] (10 ppm(m)) was “+ (bacterial growth to an OD of approximately 2 or above)”; in experiment [4] (100 ppm(m)) it was “+ (bacterial growth to an OD of approximately 2 or above)”; in experiment [4] (500 ppm(m)) it was “+ (bacterial growth to an OD of approximately 2 or above)”; in experiment [4] (1000 ppm(m)) it was “+ (bacterial growth to an OD of approximately 2 or above)”; in experiment [4] (5000 ppm(m)) it was “+ (bacterial growth to an OD of approximately 2 or above)”; in experiment [4] (10000 ppm(m)), “− (failure of bacterial growth to reach an optical density of approximately 0.5)”. In addition, the “Optical density valuation of C. tyrobutyricum” value in experiment [5] (100 ppm(m)), in experiment [5] (500 ppm(m)) and in experiment [5] (1000 ppm(m)) was “+ (bacterial growth to an OD of approximately 1.8 or above)” throughout.
